Experimental data from ChEMBL document CHEMBL3352801, “Synthesis and lipid-lowering evaluation of 3-methyl-1H-purine-2,6-dione derivatives as potent and orally available anti-obesity agents” (Eur J Med Chem, 2014).

Legend:
Mus musculus [1] = experiment: Antiobesity activity in diet-induced obese C57Bl/6 mouse assessed as change in insulin level at 20 mg/kg/day, po for 4 weeks administered with high-fat diet (reference value: 4.31 +/- .82 mU); format: functional
[2] = Total clearance in Sprague-Dawley rat at 20 mg/kg, po; format: ADME, organism-based; parameters: dose 20 mg/kg, route oral; conditions: in vivo
Mus musculus [3] = experiment: Antiobesity activity in diet-induced obese C57Bl/6 mouse assessed as reduction in HOMA-IR value at 20 mg/kg/day, po for 4 weeks administered with high-fat diet (reference value: 0.94 +/- 0.23 no_unit); format: functional
[4] = Volume of distribution in Sprague-Dawley rat at 5 mg/kg, iv; format: ADME, organism-based; parameters: dose 5 mg/kg, route intravenous; conditions: in vivo
Mus musculus [5] = experiment: Toxicity in diet-induced obese C57Bl/6 mouse assessed as change in AST level at 20 mg/kg/day, po for 4 weeks administered with high-fat diet (reference value: 128.00 +/- 20.59 U/L); format: organism-based; parameters: route oral; conditions: in vivo, 672 h
[6] = AUC (0 to t) in Sprague-Dawley rat at 5 mg/kg, iv; format: ADME, organism-based; parameters: dose 5 mg/kg, route intravenous; conditions: plasma
Mus musculus [7] = experiment: Antiobesity activity in diet-induced obese C57Bl/6 mouse assessed as change in insulin level at 50 mg/kg/day, po for 4 weeks administered with high-fat diet (reference value: 4.31 +/- .82 mU); format: functional
Mus musculus [8] = experiment: Antiobesity activity in diet-induced obese C57Bl/6 mouse assessed as reduction in hepatic triglyceride level at 50 mg/kg/day, po for 4 weeks administered with high-fat diet by Oil Red O staining-based histological method; format: functional; parameters: scale not given: the % may be the effect or the level left
Mus musculus [9] = experiment: Antiobesity activity in diet-induced obese C57Bl/6 mouse assessed as loss of liver weight at 150 mg/kg/day, po for 4 weeks administered with high-fat diet; format: functional
Mus musculus [10] = experiment: Antiobesity activity in diet-induced obese C57Bl/6 mouse assessed as loss of epididymal fat mass at 150 mg/kg/day, po for 4 weeks administered with high-fat diet; format: functional
Mus musculus [11] = experiment: Antiobesity activity in diet-induced obese C57Bl/6 mouse assessed as reduction in FFA level at 50 mg/kg/day, po for 4 weeks administered with high-fat diet (reference value: 25.07 +/- 3.49 ng/L); format: functional
Mus musculus [12] = experiment: Antiobesity activity in diet-induced obese C57Bl/6 mouse assessed as reduction in body weight at 50 mg/kg/day, po for 4 weeks administered with high-fat diet; format: functional; parameters: scale not given: the % may be the effect or the level left
[13] = Half life in Sprague-Dawley rat at 20 mg/kg, po; format: ADME, organism-based; parameters: dose 20 mg/kg, route oral; conditions: in vivo
Mus musculus [14] = experiment: Antiobesity activity in diet-induced obese C57Bl/6 mouse assessed as increase in HDL level at 50 mg/kg/day, po for 4 weeks administered with high-fat diet (reference value: 1.02 +/- 0.13 mM); format: functional
Rattus norvegicus = experiment: Volume of distribution in Sprague-Dawley rat at 20 mg/kg, po; format: ADME, organism-based; parameters: dose 20 mg/kg, route oral; conditions: in vivo
[15] = Tmax in Sprague-Dawley rat at 20 mg/kg, po; format: ADME, organism-based; parameters: dose 20 mg/kg, route oral; conditions: in vivo
Mus musculus [16] = experiment: Antiobesity activity in diet-induced obese C57Bl/6 mouse assessed as reduction in triglyceride level at 50 mg/kg/day, po for 4 weeks administered with high-fat diet (reference value: 0.96 +/- 0.14 mM); format: functional
[17] = Solubility of the compound at room temperature; format: physicochemical
Mus musculus [18] = experiment: Antiobesity activity in diet-induced obese C57Bl/6 mouse assessed as loss of liver weight at 20 mg/kg/day, po for 4 weeks administered with high-fat diet; format: functional
Mus musculus [19] = experiment: Antiobesity activity in diet-induced obese C57Bl/6 mouse assessed as reduction in FFA level at 20 mg/kg/day, po for 4 weeks administered with high-fat diet (reference value: 25.07 +/- 3.49 ng/L); format: functional
Mus musculus [20] = experiment: Toxicity in diet-induced obese C57Bl/6 mouse assessed as change in food intake at 20 mg/kg/day, po for 4 weeks administered with high-fat diet; format: organism-based; parameters: route oral; conditions: in vivo, 672 h
Mus musculus [21] = experiment: Antiobesity activity in diet-induced obese C57Bl/6 mouse assessed as loss of epididymal fat mass at 50 mg/kg/day, po for 4 weeks administered with high-fat diet; format: functional
Mus musculus [22] = experiment: Antiobesity activity in diet-induced obese C57Bl/6 mouse assessed as reduction in LDL level at 50 mg/kg/day, po for 4 weeks administered with high-fat diet (reference value: 0.13 +/- 0.02 mM); format: functional
Mus musculus [23] = experiment: Antiobesity activity in diet-induced obese C57Bl/6 mouse assessed as reduction in fasting blood glucose at 20 mg/kg/day, po for 4 weeks administered with high-fat diet (reference value: 4.88 +/- 0.75 mM); format: functional
[24] = Total clearance in Sprague-Dawley rat at 5 mg/kg, iv; format: ADME, organism-based; parameters: dose 5 mg/kg, route intravenous; conditions: in vivo
Mus musculus [25] = experiment: Toxicity in diet-induced obese C57Bl/6 mouse assessed as change in AST level at 50 mg/kg/day, po for 4 weeks administered with high-fat diet (reference value: 128.00 +/- 20.59 U/L); format: organism-based; parameters: route oral; conditions: in vivo, 672 h
[26] = Cmax in Sprague-Dawley rat at 5 mg/kg, iv; format: ADME, organism-based; parameters: dose 5 mg/kg, route intravenous; conditions: in vivo
Mus musculus [27] = experiment: Antiobesity activity in diet-induced obese C57Bl/6 mouse assessed as reduction in body weight at 20 mg/kg/day, po for 4 weeks administered with high-fat diet; format: functional; parameters: scale not given: the % may be the effect or the level left
Mus musculus [28] = experiment: Toxicity in diet-induced obese C57Bl/6 mouse assessed as change in ALT level at 20 mg/kg/day, po for 4 weeks administered with high-fat diet (reference value: 29.6 +/- 8.29 U/L); format: organism-based; parameters: route oral; conditions: in vivo, 672 h
Mus musculus [29] = experiment: Antiobesity activity in diet-induced obese C57Bl/6 mouse assessed as reduction in fasting blood glucose at 50 mg/kg/day, po for 4 weeks administered with high-fat diet (reference value: 4.88 +/- 0.75 mM); format: functional
Mus musculus [30] = experiment: Antiobesity activity in diet-induced obese C57Bl/6 mouse assessed as reduction in LDL level at 20 mg/kg/day, po for 4 weeks administered with high-fat diet (reference value: 0.13 +/- 0.02 mM); format: functional
[31] = Cmax in Sprague-Dawley rat at 20 mg/kg, po; format: ADME, organism-based; parameters: dose 20 mg/kg, route oral; conditions: in vivo
Mus musculus [32] = experiment: Antiobesity activity in diet-induced obese C57Bl/6 mouse assessed as reduction in hepatic triglyceride level at 20 mg/kg/day, po for 4 weeks administered with high-fat diet by Oil Red O staining-based histological method; format: functional; parameters: scale not given: the % may be the effect or the level left
Mus musculus [33] = experiment: Antiobesity activity in diet-induced obese C57Bl/6 mouse assessed as increase in HDL level at 20 mg/kg/day, po for 4 weeks administered with high-fat diet (reference value: 1.02 +/- 0.13 mM); format: functional
Mus musculus [34] = experiment: Toxicity in diet-induced obese C57Bl/6 mouse assessed as change in ALT level at 50 mg/kg/day, po for 4 weeks administered with high-fat diet (reference value: 29.6 +/- 8.29 U/L); format: organism-based; parameters: route oral; conditions: in vivo, 672 h
Mus musculus [35] = experiment: Antiobesity activity in diet-induced obese C57Bl/6 mouse assessed as loss of epididymal fat mass at 20 mg/kg/day, po for 4 weeks administered with high-fat diet; format: functional
[36] = Tmax in Sprague-Dawley rat at 5 mg/kg, iv; format: ADME, organism-based; parameters: dose 5 mg/kg, route intravenous; conditions: in vivo
Mus musculus [37] = experiment: Antiobesity activity in diet-induced obese C57Bl/6 mouse assessed as reduction in HOMA-IR value at 50 mg/kg/day, po for 4 weeks administered with high-fat diet (reference value: 0.94 +/- 0.23 no_unit); format: functional
Mus musculus [38] = experiment: Antiobesity activity in diet-induced obese C57Bl/6 mouse assessed as loss of liver weight at 50 mg/kg/day, po for 4 weeks administered with high-fat diet; format: functional
[39] = AUC (0 to t) in Sprague-Dawley rat at 20 mg/kg, po; format: ADME, organism-based; parameters: dose 20 mg/kg, route oral; conditions: plasma
[40] = Half life in Sprague-Dawley rat at 5 mg/kg, iv; format: ADME, organism-based; parameters: dose 5 mg/kg, route intravenous; conditions: in vivo
[41] = Oral bioavailability in Sprague-Dawley rat at 20 mg/kg; format: ADME, organism-based; conditions: in vivo
Mus musculus [42] = experiment: Antiobesity activity in diet-induced obese C57Bl/6 mouse assessed as reduction in triglyceride level at 20 mg/kg/day, po for 4 weeks administered with high-fat diet (reference value: 0.96 +/- 0.14 mM); format: functional

`CCn1c(-c2ccc(OCCN(C)c3ccccn3)cc2)nc2c1c(=O)n(Cc1ccccc1C#N)c(=O)n2C.Cl` showed an Activity (Mus musculus [1]) of 7.48 mU, a CL/F [2] of 139 mL/min/kg and an Activity (Mus musculus [3]) of 2.98. For the same compound, the Vd [4] was 23.6 L/kg, the Activity (Mus musculus [5]) was 125.71 U/L and the AUC(0-t) [6] was 1780 ng·h/mL. For the same compound, the Activity (Mus musculus [7]) was 4.76 mU, the Activity (Mus musculus [8]) was 21.59% and the Activity (Mus musculus [9]) was 22%. For the same compound, the Activity (Mus musculus [10]) was 9.92%, the Activity (Mus musculus [11]) was 25.73 ng/L and the Activity (Mus musculus [12]) was 15.08%. It also gave a half-life [13] of 418 min, an Activity (Mus musculus [14]) of 1.38 mM and a Vd (Rattus norvegicus) of 67.208 L/kg. The Tmax [15] was 2.79 h, the Activity (Mus musculus [16]) was 0.94 mM and the solubility [17] was 3280 µg/mL. The Activity (Mus musculus [18]) was 20%, the Activity (Mus musculus [19]) was 26.8 ng/L and the Activity (Mus musculus [20]) was “Non-toxic”. For the same compound, the Activity (Mus musculus [21]) was 56.2%, the Activity (Mus musculus [22]) was 0.17 mM and the Activity (Mus musculus [23]) was 8.42 mM. For the same compound, the clearance [24] was 47.1 mL/min/kg, the Activity (Mus musculus [25]) was 131.43 U/L and the Cmax [26] was 1740 ng/mL. The Activity (Mus musculus [27]) was 12.86%, the Activity (Mus musculus [28]) was 24 U/L and the Activity (Mus musculus [29]) was 7.76 mM. It also gave an Activity (Mus musculus [30]) of 0.22 mM, a Cmax [31] of 465 ng/mL and an Activity (Mus musculus [32]) of 16.8%. For the same compound, the Activity (Mus musculus [33]) was 1.31 mM, the Activity (Mus musculus [34]) was 18.86 U/L and the Activity (Mus musculus [35]) was 18.18%. For the same compound, the Tmax [36] was 4.98 min, the Activity (Mus musculus [37]) was 1.59 and the Activity (Mus musculus [38]) was 22.67%. The AUC(0-t) [39] was 4190 ng·h/mL, the half-life [40] was 349 min and the bioavailability [41] was 58.9%. For the same compound, the Activity (Mus musculus [42]) was 1.25 mM.
